Test results taken from patent US20250057959A1, “PHOSPHANE GOLD(I)-N-HETEROCYCLIC CARBENE COMPLEXES FOR TREATING CANCER” (KING FAHD UNIVERSITY OF PETROLEUM AND MINERALS, priority 2023, published 2025).

Assays:
Type in all cases: cell-based, human
A2780 = experiment: MTT cell viability assay, A2780; conditions: for IC50: 72 hours treatment, MTT; for Activity compared with cisplatin or auranofin in A2780 cells: comparison of IC50, Table 8
Source text: (§1) Human epithelial ovarian cancer A2780 cell line and its cisplatin-resistant clone A2780cis were obtained from Sigma-Aldrich (Milano, Italy). SKOV3 (HTB-77) cells were from the American Type Culture Collection (ATCC). The two cell lines were selected to reflect the two different stages of OvCa and different sensitivity to cisplatin. A2780 cell lines were derived from the ovarian tumor tissue of an untreated patient, while SKOV3 was from the ascitic fluids (after metastasis). Cells were authenticated in the laboratory using PowerPlex 16 HS system (Promega) and GeneMapper ID version 3.2.1 to identify DNA short tandem repeats. Cell lines were cultured in RPMI-1640 medium containing 10% fetal bovine serum (FBS) (Gibco, Thermo Fisher Scientific, U.S.A), 1% (v/v) of penicillin (10,000 units/mL)-streptomycin (10 mg/mL), and 1% (v/v) L-glutamine (200 mM) (all from Sigma- Aldrich) at 37° C. in a 5% CO2 fully humidified atmosphere. A2780cis cells were continuously exposed to 1 μM cisplatin to maintain cisplatin resistance. Adipose-derived stem cells (ADSCs) were purchased from Lonza and maintained in mesenchymal-stem-cell growth medium Bulletkit MSCGM (Lonza, Verviers, Belgium).
(§2) 4.0×10^3/mL A2780, A2780cis, and SKOV3 cells were seeded in 96-well microplates in 100 μL of culture medium. Cells were allowed to adhere for 24 hours and then were treated in triplicate with increasing concentrations of gold compounds (0-1 μM). Cisplatin was included as a reference drug. Cell viability was evaluated using 3-(4,5-dimethylthiazol-2-yl)-2,5-diphenyltetrazolium bromide (MTT) assay (Sigma-Aldrich) after 72 hours of treatment. Half maximal inhibitory concentrations (IC50) were calculated using the CalcuSyn software version 2 (Biosoft, Ferguson, MO, USA). Fold resistance was calculated as the ratio of the IC50 of the A2780cis to that of the parental cell line A2780.

A2780cis [1] = experiment: MTT cell viability assay, cisplatin-resistant A2780cis; conditions: for IC50: 72 hours treatment, MTT; for Fold resistance (A2780cis/A2780): IC50 A2780cis/IC50 A2780
Source text: Human epithelial ovarian cancer A2780 cell line and its cisplatin-resistant clone A2780cis were obtained from Sigma-Aldrich (Milano, Italy). SKOV3 (HTB-77) cells were from the American Type Culture Collection (ATCC). The two cell lines were selected to reflect the two different stages of OvCa and different sensitivity to cisplatin. A2780 cell lines were derived from the ovarian tumor tissue of an untreated patient, while SKOV3 was from the ascitic fluids (after metastasis). […] Cell lines were cultured in RPMI-1640 medium containing 10% fetal bovine serum (FBS) (Gibco, Thermo Fisher Scientific, U.S.A), 1% (v/v) of penicillin (10,000 units/mL)-streptomycin (10 mg/mL), and 1% (v/v) L-glutamine (200 mM) (all from Sigma- Aldrich) at 37° C. in a 5% CO2 fully humidified atmosphere. […] Cisplatin was included as a reference drug. […] Fold resistance was calculated as the ratio of the IC50 of the A2780cis to that of the parental cell line A2780.

SKOV3 cells = experiment: MTT cell viability assay, SKOV3; conditions: 72 hours treatment
Source text: as §1, §2

A2780 and A2780cis cells [2] = experiment: Apoptosis by flow cytometry (annexin-V/7AAD, caspase-3,7, BAX, Bcl-2); conditions: 48 hours; complex 6 and auranofin at IC50 and IC75, cisplatin 0.15 μM and 0.50 μM
Procedure: (§3) Results were detected by flow cytometry on a BD FACSCanto II flow cytometer. Data were analyzed using BD FACSDiva version 8.0.1 software (BD Biosciences) unless otherwise indicated. To evaluate apoptosis, tumor cells were treated for 48 hours and then stained for 15 minutes with FITC annexin-V (Thermo Fisher Scientific) and 7AAD (BD Pharmingen). […] For B-cell lymphoma/leukemia-2 (Bcl-2) and Bcl-2 associated x protein (Bax) evaluation, cells were fixed and permeabilized using FIX & PERM cell fixation and cell permeabilization kit (Life Technologies). […] The distribution of cells in different cell cycle phases was quantified using ModFit LT 4.0 software (Verity Software House, Topsham, ME, USA).

A2780 and A2780cis cells [3] = experiment: mitROS generation (MitoSOX red), flow cytometry
Procedure: as §3

A2780 and A2780cis cells [4] = experiment: DNA double-strand breaks, γ-H2AX western blot
Procedure: Whole-cell lysates were prepared using cold RIPA buffer [150 mM NaCl, 50 mM Tris-HCl (pH 8), 0.1% SDS, 1% Igepal, and 0.5% desoxycholate sodium] containing a protease inhibitor cocktail (Roche Diagnostics S.p.a., Milan, Italy), phosphatase inhibitors 1 mM Na3VO4 and 1 mM NaF (Sigma-Aldrich). Protein concentrations were determined using the BioRad protein assay (Bio-Rad Laboratories, Inc., CA, USA). Equal amounts of proteins were mixed with Laemmli buffer, separated in 4-20% SDS-PAGE (Criterion Precast Gel, BioRad), and blotted onto a nitrocellulose membrane (Amersham, GE Healthcare). Membrane strips were blocked with EveryBilot blocking buffer (Bio-Rad) and incubated at 4° C. overnight with primary antibodies probed with the appropriate antibodies (Table 2) and developed using Immobilon Western chemioluminescent HRP substrate. Images were acquired using a ChemiDoc XRS system (Bio-Rad).

A2780 cells [5] = experiment: Cell cycle analysis (PI, flow cytometry), A2780; conditions: for Effect on cell cycle phases: A2780, 24 hours, auranofin 0.5 μM (IC50), cisplatin 0.50 μM
Procedure: as §3

A2780cis [6] = experiment: Cell cycle analysis (PI, flow cytometry), A2780cis; conditions: 24 hours
Procedure: as §3

SKOV3-MCTSs = experiment: SKOV3-MCTS spheroid volume
Procedure: To generate single spheroids with defined size, 1.0×10^3/mL SKOV3 cells were seeded 4 days under nonadherent conditions in U-bottom 96-well plates coated twice with 20 mg/mL of poly(2-hydroxyethyl methacrylate) (poly-HEMA; Sigma) in 95% ethanol. Spheroid size was measured at days 0, 3, and 7 after drug treatment initiation using an inverted microscope (Eclipse TS/100, Nikon, Tokyo, Japan) with photomicrographic systems DS camera control unit DS-L2. Spheroid volumes were calculated using the formula (width^2×length×3.14)/6.

A2780 cells [7] = experiment: ROS generation (MitoSOX red), flow cytometry, A2780; conditions: cisplatin 0.50 μM; from 6.4%
Procedure: 2.0×10^5/mL A2780 and A2780cis cells were seeded in 6-well plates in complete medium and treated with complex 6 (0.15 μM and 0.5 μM). Results were detected by flow cytometry on a BD FACSCanto II flow cytometer. Data were analyzed using BD FACSDiva version 8.0.1 software (BD Biosciences) unless otherwise indicated. To evaluate apoptosis, tumor cells were treated for 48 hours and then stained for 15 minutes with FITC annexin-V (Thermo Fisher Scientific) and 7AAD (BD Pharmingen). […] For B-cell lymphoma/leukemia-2 (Bcl-2) and Bcl-2 associated x protein (Bax) evaluation, cells were fixed and permeabilized using FIX & PERM cell fixation and cell permeabilization kit (Life Technologies). For ROS generation, cells were stained with 5 μM MitoSOX red mitochondrial superoxide indicator (ThermoFisher Scientific) in a working solution for 30 minutes at 37° C. Cell cycle analysis was performed after 24 hours treatment with complex 6. Cells were harvested, fixed in cold 70% ethanol for 15 minutes, and stained with propidium iodide (PI) solution ([…] PI, 0.1% NP-40, 100 µg/mL PureLink RNase A, 0.1% sodium citrate) for 1 hour. The distribution of cells in different cell cycle phases was quantified using ModFit LT 4.0 software (Verity Software House, Topsham, ME, USA).

Compound | IC50 (A2780) | IC50 (A2780cis [1]) | Fold resistance (A2780cis/A2780) (A2780cis [1]) | Activity compared with cisplatin or auranofin in A2780 cells (A2780) | further results
CC[PH](CC)(CC)[Au][S][C@@H]1O[C@H](COC(C)=O)[C@@H](OC(C)=O)[C@H](OC(C)=O)[C@H]1OC(C)=O [Auranofin, (2,3,4,6-tetra-O-acetyl-L-thio-β-D-glycopyranosato-S-)-(triethylphosphane)gold(I), reference compound] | 0.51 ± 0.07 µM | 1.91 ± 0.22 µM | 3.7 |  | IC50 (A2780; listed as auranofin): 0.5 µM; IC50 (A2780cis [1]; listed as auranofin): 1.9 µM; IC50 (SKOV3 cells): 2.3 µM; Apoptosis (annexin-V / 7AAD positive cells) (A2780 and A2780cis cells [2]): less active in inducing apoptosis in cisplatin-resistant A2780cis than in A2780 cells; mitROS generation (A2780 and A2780cis cells [3]): induced ROS generation; DNA double-strand breaks (γH2AX) (A2780 and A2780cis cells [4]): induced; sub-G0/G1 phase (DNA fragmentation) (A2780 cells [5]; A2780, 0.8 μM (IC75), 24 hours): 11%; Effect on cell cycle phases (A2780 cells [5]): decreased the G1 phase; sub-G0/G1 phase (DNA fragmentation) (A2780cis [6]; 2.5 μM (IC75)): 1.7%; Effect on cell cycle phases (A2780cis [6]): slightly decreased the G1 phase and increased the S phase; Effect on SKOV3-MCTSs at 1 μM (SKOV3-MCTSs; 1 μM): did not reduce SKOV3-MCTS volume; Concentration at which SKOV3-MCTS growth inhibition was seen (SKOV3-MCTSs; 72 hours): higher than 5 μM
N.N.[Cl][Pt][Cl] [Cisplatin, reference compound] | 1.5 µM | 10.4 µM | 6.93 |  | IC50 (SKOV3 cells): 5.4 µM; Apoptosis (annexin-V / 7AAD positive cells) (A2780 and A2780cis cells [2]): did not induce apoptosis; ROS generation (positive cells) (A2780 cells [7]): 17.4%; DNA double-strand breaks (γH2AX) (A2780 and A2780cis cells [4]): did not induce; Effect on cell cycle phases (A2780 cells [5]): slight increase of the G2/M phase; Decrease of SKOV3-MCTS growth with respect to control (SKOV3-MCTSs; 1 μM, 7 days): 16%
CC(C)c1cccc(C(C)C)c1-n1ccn(-c2c(C(C)C)cccc2C(C)C)[c]1=[Au+][PH](CCC#N)(CCC#N)c1ccccc1.F[P-](F)(F)(F)(F)F [Complex 1, [Au(IPr)(C12H13N2P)] PF6] | 2 ± 0.19 µM | 3.55 ± 0.35 µM | 1.78 |  | 
CC(C)c1cccc(C(C)C)c1-n1ccn(-c2c(C(C)C)cccc2C(C)C)[c]1=[Au+][PH](c1ccccc1)(c1ccccc1)[C@@H]1CCCC[C@H]1N.F[P-](F)(F)(F)(F)F [Complex 2, [Au(IPr)(C18H22NP)] PF6] | 0.5 ± 0.04 µM | 0.8 ± 0.04 µM | 1.6 | more active than cisplatin | 
CC(C)c1cccc(C(C)C)c1-n1ccn(-c2c(C(C)C)cccc2C(C)C)[c]1=[Au+][PH](c1ccccc1)(c1ccccc1)C(c1ccccc1)C(N)c1ccccc1.F[P-](F)(F)(F)(F)F (stereo not shown) [Complex 3, [Au(IPr)(C26H24NP)] PF6] | 0.78 ± 0.06 µM | 1.14 ± 0.1 µM | 1.46 | more active than cisplatin | 
CC(C)c1cccc(C(C)C)c1-n1ccn(-c2c(C(C)C)cccc2C(C)C)[c]1=[Au+][PH](CC(N)c1ccccc1)(c1ccccc1)c1ccccc1.F[P-](F)(F)(F)(F)F (stereo not shown) [Complex 4, [Au(IPr)(C20H20NP)] PF6] | 0.82 ± 0.05 µM | 1.17 ± 0.15 µM | 1.43 | more active than cisplatin | 
CC(C)c1cccc(C(C)C)c1-n1ccn(-c2c(C(C)C)cccc2C(C)C)[c]1=[Au+][PH](CC(N)C(C)(C)C)(c1ccccc1)c1ccccc1.F[P-](F)(F)(F)(F)F (stereo not shown) [Complex 5, [Au(IPr)(C18H24NP)] PF6] | 0.75 ± 0.07 µM | 0.92 ± 0.08 µM | 1.23 | more active than cisplatin | 
CC(C)c1cccc(C(C)C)c1-n1ccn(-c2c(C(C)C)cccc2C(C)C)[c]1=[Au+][PH](CCCN)(c1ccccc1)c1ccccc1.F[P-](F)(F)(F)(F)F [Complex 7, [Au(IPr)(C15H18NP)] PF6] | 1.42 ± 0.12 µM | 1.8 ± 0.15 µM | 1.27 |  | 
